Patent US8535696B2, “Treating eczema and/or psoriasis” (Lypanosys Pte Limited, priority 2000, dated 2013)

What was measured:
[1] = Trials with patients using dosage forms of cetyl myristate alone or with cetyl palmitate; type: in vivo, human; conditions: variety of patients, cetyl myristate alone
[2] = laboratory experiments, www.gcinutrients.com; cited from earlier work

Which results are given for `CCCCCCCCCCCCCCCCOC(=O)CCCCCCCCCCCCC` [cetyl myristate]?
relief from the symptoms of IBS and/or IBD [1]: favourable responses; anti-arthritic activity [2]: negligible
